Assay results as given in PubChem BioAssay AID1361 (SRMLSC, 2008).
Active and inactive are the calls of the source. The rule behind the calls is not given here.

Assay: blockers of mitochondrial fusion, WT vs mutant – cell-based, chemical genetic, wild-type and mutant, confirmation (AID 1361)
Conditions: Cell-based mitochondrial fusion phenotype, imaging
[1] = mutant cells, measured here: mutant cell line IC50

Row | Structure (SMILES) | IC50 (WT cells) | IC50 [1] [µM]
1 | CN(C)S(=O)(=O)c1ccc(C(=O)Nc2nnc(-c3ccc4c(c3)CCCC4)o2)cc1 | 12.8 µM | 22
2 | O=C(Nc1cccc(Cl)c1N1CCCC1)c1ccc(Br)o1 | 18.1 µM | > 25
3 | CCOc1ccc(Cc2c(Cl)nc(SC)nc2N(C)C)cc1 | 11.8 µM | > 25
4 | Cc1ccc(NC(=S)N(Cc2cccc(Br)c2)CC2CCC(C(=O)O)CC2)cc1Cl (stereo not given) | 21.8 µM | > 25
5 | Cc1cccc(N2CCN(C(c3cccs3)c3nnnn3C(C)(C)C)CC2)c1C (stereo not given) | 10.9 µM | > 25
6 | Cc1cc(N2C(=O)C=CC2=O)c([N+](=O)[O-])cc1C | > 25 µM (inactive) | > 25
7 | O=C(Nn1c(-c2ccccc2)nc2ccccc2c1=O)C1CCC1 | > 25 µM (inactive) | > 25
8 | O=C(COC(=O)c1cc(-c2cccc(Br)c2)nc2ccccc12)NCC1CCCO1 (stereo not given) | 19.8 µM | > 25
9 | O=C(Nc1ccc(F)cc1)c1ccccc1Oc1ccc(C(F)(F)F)cc1[N+](=O)[O-] | 17.5 µM | > 25
10 | Fc1ccc(N2N=C(c3cccs3)CC2c2ccco2)c(F)c1 (stereo not given) | 15.8 µM | 22.3
11 | CCOc1cc(C2Nc3ccccc3C(=O)N2c2ccccc2OC)ccc1O (stereo not given) | > 25 µM (inactive) | > 25
12 | Cc1ccc(-c2nc(N)sc2-c2ccc(C)cc2)cc1 | 9.96 µM (inactive) | 9.46
13 | Cc1ncsc1C(=O)N1N=C2/C(=C/c3ccccc3)CCCC2C1c1ccccc1 (stereo not given) | 10.3 µM | > 25
14 | CCOc1ccccc1NC(=O)C(NCC1CCCCC1)c1ccccc1 (stereo not given) | 14.3 µM | > 25
15 | Cc1ccc(C(c2nnnn2CCc2ccccc2)N2CCC(C)CC2)cc1 (stereo not given) | > 25 µM (inactive) | > 25
16 | CC1(c2ccc([N+](=O)[O-])cc2)CC(C)(C)N(C(=O)c2ccccc2)c2ccccc21 (stereo not given) | 1.71 µM | 4.04
17 | Cc1ccc2nc(N/N=C/c3ccccc3F)nc(-c3ccccc3)c2c1 | 7.54 µM | 16.6
18 | COc1ccc(Cc2nn[nH]n2)cc1 | > 25 µM (inactive) | > 25
19 | CC(C)(C)c1ccc(S(=O)(=O)Nc2ccc(Cc3ccncc3)cc2)cc1 | 23.3 µM | > 25
20 | COC(=O)C1CSc2[nH]c(=O)sc2C1c1ccc(OC)c(OC)c1 (stereo not given) | > 25 µM (inactive) | > 25
21 | FC(F)(F)c1ccc(Oc2ccc3ccccc3c2Br)nc1 | > 25 µM (inactive) | > 12.5
22 | Cc1nc(N2CCCCC2)c2c(C)c(C(=O)Nc3cccc(C(F)(F)F)c3)sc2n1 | 9.62 µM | > 25
23 | CC1CCCCN1C(=O)Cn1cc(/C=C2/C(=O)Nc3ccccc32)c2ccccc21 (stereo not given) | 24.4 µM | > 25
24 | NC(=O)c1ccc(N2CCCCC2)c(N2C(=O)C3CC=CCC3C2=O)c1 (stereo not given) | > 25 µM (inactive) | > 25
25 | CCCCCOc1ccc(CSCCNC(=S)Nc2ccccc2)cc1 | 5.86 µM | > 25
26 | Cc1nc2ccccc2nc(C)c1=NOCc1ccc(Cl)cc1Cl | 24.2 µM | > 25
27 | CCCOC(=O)CN1C(=O)c2ccccc2C1=O | > 25 µM (inactive) | > 25

Results, then the compound that gave them:

Row | IC50 (WT cells) | IC50 [1] [µM] | Structure (SMILES)
28 | 12.9 µM | > 25 | COc1ccc(-c2nnc(SCc3cc(C)cc(C)c3)o2)cc1
29 | 10.9 µM | > 25 | Cc1ccc(C(C(=O)NCC2CCCO2)N(Cc2ccccc2)C(=O)c2ccc(-c3ccccc3)[nH]2)o1 (stereo not given)
30 | > 25 µM (inactive) | > 25 | CCCNC(=S)Nc1ccc2nc(-c3ccccn3)c(-c3ccccn3)nc2c1
31 | > 25 µM (inactive) | > 25 | Cc1cc(=O)oc(C)c1C(=O)Nc1ccc2nsnc2c1
32 | > 25 µM (inactive) | > 25 | C=CCOc1ccc2ccccc2c1CNCCCN1CCOCC1
33 | 14.8 µM | > 25 | CCOc1ccc(Oc2c(/C=N/NC(=O)COc3ccccc3OC)c(C)nn2-c2ccccc2)cc1
34 | 18.8 µM | > 25 | Cc1ccc(N(CC(O)Cn2c3ccccc3c3ccccc32)S(C)(=O)=O)c(C)c1 (stereo not given)
35 | 15.1 µM | > 25 | Cc1ccc(/C=C/C(=O)N2CCC(Cc3ccccc3)CC2)cc1
36 | 21.1 µM | > 25 | Cc1cc(Cl)ccc1OC(C)C(=O)Nc1ccccc1N1CCOCC1 (stereo not given)
37 | > 25 µM (inactive) | > 25 | FC(F)(F)c1cnc(Sc2nc3nccc(-c4ccc(Cl)cc4)n3n2)c(Cl)c1
38 | > 25 µM (inactive) | > 25 | COc1ccc(NC(=O)N2c3ccccc3CC2C)cc1OC (stereo not given)
39 | > 25 µM (inactive) | > 25 | CC1CCN(S(=O)(=O)c2ccc(Oc3ccc([N+](=O)[O-])cc3)cc2)CC1
40 | > 25 µM (inactive) | > 25 | O=C1CC(SCc2nc3ccccc3[nH]2)C(=O)N1c1cccc(F)c1 (stereo not given)
41 | > 25 µM (inactive) | > 25 | OCCN(CCO)CC(O)COc1ccc(C23CC4CC(CC(C4)C2)C3)cc1 (stereo not given)
42 | > 25 µM (inactive) | > 25 | Cc1coc(C)c1C(=O)CC1(O)C(=O)Nc2cc(Cl)cc(Cl)c21 (stereo not given)
43 | > 25 µM (inactive) | > 25 | CS(=O)(=O)N(CC(=O)NCc1ccc2c(c1)OCO2)c1ccc(Cl)cc1
44 | 8.2 µM | > 25 | CCOC(=O)C1=NN(c2cccc(C)c2)C2(S1)SC(C(C)=O)=C(C)N2c1ccccc1 (stereo not given)

Row | IC50 (WT cells) | IC50 [1] [µM] | Structure (SMILES)
45 | > 25 µM (inactive) | > 25 | O=C(Nc1ccc2c(c1)OCO2)c1ccccc1SCC(=O)N1CCCC1
46 | 18.8 µM | > 25 | FC(F)(F)c1cc(-c2ccccc2)nc(NCc2cccs2)n1
47 | 15 µM | > 25 | O=C(NCc1ccccn1)C(=O)Nc1nc(C23CC4CC(CC(C4)C2)C3)cs1
48 | 16.3 µM | > 25 | O=C(Nc1ccccc1)Nc1cc(OCC(F)(F)F)cc(OCC(F)(F)F)c1
49 | 4.55 µM | > 25 | CCOC(=O)Cn1c(=NC(=O)c2ccc([N+](=O)[O-])s2)sc2ccccc21
50 | > 25 µM (inactive) | > 25 | Cc1c(C)c2cc(Cl)c(O)c(CN3CCCC(C)C3)c2oc1=O (stereo not given)
51 | 12.8 µM | > 25 | CCN(CC)P(=O)(Nc1ccc(C)cc1Br)c1ccc(N(C)C)cc1NC(=O)c1ccco1 (stereo not given)
52 | > 25 µM (inactive) | > 25 | O=C(CSc1nnc2scc(-c3ccccc3)n12)Nc1ccc2c(c1)OCCO2
53 | 24.9 µM (inactive) | > 25 | CC1CC2(CCCC2)N(C(=O)c2ccccc2)Cc2ccccc21 (stereo not given)
54 | 12.8 µM | > 25 | C=C(C)c1cccc(C(C)(C)NC(=O)Nc2ccc(Cl)cn2)c1
55 | > 25 µM (inactive) | > 25 | CC(NC(=S)NCCCN1CCOCC1)C1CC2CCC1C2 (stereo not given)
56 | > 25 µM (inactive) | > 25 | CCOC(=O)c1c(NC(=O)OC)sc(C(=O)N(C)C)c1C
57 | 12.4 µM (inactive) | 10.5 | CCCCCOC(=O)c1ccc(NC(=O)c2ccco2)cc1
58 | > 25 µM (inactive) | > 25 | CCCCN(CCCC)CCNC(=O)Cc1nc2c(c(=O)[nH]c(=O)n2C)n1C
59 | > 25 µM (inactive) | > 25 | O=C(c1ccco1)N1CCN(C(=O)C2c3ccccc3Oc3ccccc32)CC1
60 | > 25 µM (inactive) | > 25 | O=C(CN1CCN(S(=O)(=O)c2ccc(Cl)s2)CC1)NCc1ccc(Cl)cc1
